Assay results: US20230263822A1, “MODULATION OF FACTOR 11 EXPRESSION” (Ionis Pharmaceuticals, Inc., priority 2008, published 2023)
Strand notation (5' to 3'): a small letter for the sugar, then the base; units joined by * are phosphorothioate-linked, units joined directly phosphodiester-linked; [ ] holds rarer units or linkages, { } end groups; capitals alone tell only the bases. e = 2'-O-(2-methoxyethyl) (MOE); [5mC] = 5-methylcytosine; d = 2'-deoxy (DNA)

Tests used:
Factor 11 mRNA = Factor 11 mRNA in cynomolgus monkey liver, day 85 (Example 45); assay type: in vivo; conditions: cynomolgus monkeys, s.c. escalating doses 5-25 mg/kg over 12 weeks
Experimental: (§1) Groups, each consisting of two male and three female monkeys, were injected subcutaneously with ISIS 416838, ISIS 416850, ISIS 416858, ISIS 416864, or ISIS 417002 in escalating doses. Antisense oligonucleotide was administered to the monkeys at 5 mg/kg three times per a week for week 1; 5 mg/kg twice per week for weeks 2 and 3; 10 mg/kg three times per week for week 4; 10 mg/kg twice per week for weeks 5 and 6; 25 mg/kg three times per week for week 7; and 25 mg/kg twice per week for weeks 8, 9, 10, 11, and 12. One control group, consisting of two male and three female monkeys, was injected subcutaneously with PBS according to the same dosing regimen. An additional experimental group, consisting of two male and three female monkeys, was injected subcutaneously with ISIS 416850 in a chronic, lower dose regimen. Antisense oligonucleotide was administered to the monkeys at 5 mg/kg three times per week for week 1; 5 mg/kg twice per week for week 2 and 3; 10 mg/kg three times per week for week 4; and 10 mg/kg twice per week for weeks 5 to 12. Body weights were measured weekly. Blood samples were collected 14 days and 5 days before the start of treatment and subsequently once per week for Factor 11 protein activity analysis in plasma, fibrinogen measurement, PT and aPTT measurements, bleeding times, and measurement of various hematologic factors. On day 85, the monkeys were euthanized by exsanguination while under deep anesthesia, and organs harvested for further analysis.
On day 85, RNA was extracted from liver tissue for real-time PCR analysis of Factor 11 using primer probe set LTS00301 (forward primer sequence […], designated herein as SEQ ID NO 271; reverse primer sequence […], designated herein as SEQ ID NO: 272; and probe sequence TGCAGGCACAGCATCCCAGTGTTCTX, designated herein as SEQ ID NO. 273). Results are presented as percent inhibition of Factor 11, relative to PBS control.

blood coagulation = assay: PT and aPTT assay in cynomolgus monkeys (Example 45); assay type: in vivo; conditions: escalating dose regimen, platelet poor plasma
Experimental: as §1
Blood samples were collected in tubes containing sodium citrate. PT and aPTT were determined in duplicate with an ACL 9000 coagulation instrument (Instrumentation Laboratory, Italy). The results were interpolated on a standard curve of serial dilutions citrated control monkey plasma tested to give a reported result in percent normal.
Prothrombin Time (PT) and Activated Partial Thromboplastin Time (aPTT) were measured using platelet poor plasma (PPP) from monkeys treated with ISIS oligonucleotides. PT and aPTT values are provided in Tables 116 and 117 and are reported as International Normalized Ratio (INR) values. INR values for PT and aPTT were determined by dividing the PT or aPTT value for each experimental group by the PT or aPTT for the PBS treated group. This ratio was then raised to the power of the International Sensitivity Index (ISI) of the tissue factor used. The ISIS oligonucleotide, ISIS 416850, given with the chronic dose regimen is distinguished from the other oligonucleotides with an asterisk (*).

[1] = Tolerability in CD1 mice: kidney function, BUN (Example 37); conditions: plasma, 50 mg/kg s.c. twice per week for 6 weeks
[2] = Tolerability in CD1 mice: body weight and organ weights (Example 37); conditions: 50 mg/kg s.c. twice per week for 6 weeks; for body weight: increase in grams over the PBS control weight taken before the start of treatment; for Kidney weight / Liver weight / Spleen weight: percentage of the body weight
Experimental: Body weight was measured at the onset of the study and subsequently twice per week. The body weights of the mice are presented in Table 80 and are expressed increase in grams over the PBS control weight taken before the start of treatment. Liver, spleen, and kidney weights were measured at the end of the study, and are also presented in Table 80 as percentage of the body weight.

[3] = Tolerability in CD1 mice: kidney function, BUN (Example 41); conditions: 50 mg/kg s.c. twice per week for 6 weeks, plasma

416850 (antisense TGCACAGTTTCTGGCAGGCC; 5-10-5 gapmer, further chemistry not given here) [compound 416850]
% inhibition of Factor 11 mRNA in the cynomolgus monkey liver relative to the PBS control (Factor 11 mRNA): 84%

416858 (antisense ACGGCATTGGTGCACAGTTT; 5-10-5 gapmer, further chemistry not given here) [compound 416858]
% inhibition of Factor 11 mRNA in the cynomolgus monkey liver relative to the PBS control (Factor 11 mRNA): 90%

416864 (antisense GGCAGCGGACGGCATTGGTG; 5-10-5 gapmer, further chemistry not given here) [compound 416864]
% inhibition of Factor 11 mRNA in the cynomolgus monkey liver relative to the PBS control (Factor 11 mRNA): 44%

417002 (antisense GGTGCACAGTTTCTGGCAGG; 2-13-5 gapmer chemistry, further chemistry not given here) [compound 417002]
% inhibition of Factor 11 mRNA in the cynomolgus monkey liver relative to the PBS control (Factor 11 mRNA): 57%

ISIS 416858: MOE gapmer, nucleobases 1275 to 1318 of SEQ ID NO: 1 (Table 8) (antisense ACGGCATTGGTGCACAGTTT; MOE gapmer, wing and gap sizes not given here)
PT ratio (INR) (blood coagulation; day 8): 1.05 | aPTT ratio (INR) (blood coagulation; day 8): 1.03 | PT ratio (INR) (blood coagulation; day 15): 1.07 | aPTT ratio (INR) (blood coagulation; day 15): 1.07 | PT ratio (INR) (blood coagulation; day 22): 1.06 | aPTT ratio (INR) (blood coagulation; day 22): 1.18 | PT ratio (INR) (blood coagulation; day 29): 1.08 | aPTT ratio (INR) (blood coagulation; day 29): 1.20 | PT ratio (INR) (blood coagulation; day 36): 1.07 | aPTT ratio (INR) (blood coagulation; day 36): 1.36 | PT ratio (INR) (blood coagulation; day 43): 1.08 | aPTT ratio (INR) (blood coagulation; day 43): 1.28 | PT ratio (INR) (blood coagulation; day 50): 1.03 | aPTT ratio (INR) (blood coagulation; day 50): 1.55 | PT ratio (INR) (blood coagulation; day 57): 1.09 | aPTT ratio (INR) (blood coagulation; day 57): 1.59 | PT ratio (INR) (blood coagulation; day 64): 1.09 | aPTT ratio (INR) (blood coagulation; day 64): 1.60 | PT ratio (INR) (blood coagulation; day 71): 1.07 | aPTT ratio (INR) (blood coagulation; day 71): 1.70 | PT ratio (INR) (blood coagulation; day 78): 1.10 | aPTT ratio (INR) (blood coagulation; day 78): 1.79 | PT ratio (INR) (blood coagulation; day 85): 1.07 | aPTT ratio (INR) (blood coagulation; day 85): 1.76 | PT ratio (INR) (blood coagulation; day −5): 1.00 | aPTT ratio (INR) (blood coagulation; day −5): 1.00 | PT ratio (INR) (blood coagulation; day −14): 1.00 | aPTT ratio (INR) (blood coagulation; day −14): 1.00 | BUN [1]: 23 mg/dL | body weight [2]: 12 g | Kidney weight [2]: 1.6% | Liver weight [2]: 7% | Spleen weight [2]: 0.6%

ISIS 416864: MOE gapmer, nucleobases 1275 to 1318 of SEQ ID NO: 1 (Table 8) (antisense GGCAGCGGACGGCATTGGTG; MOE gapmer, wing and gap sizes not given here)
PT ratio (INR) (blood coagulation; day 8): 1.02 | aPTT ratio (INR) (blood coagulation; day 8): 1.05 | PT ratio (INR) (blood coagulation; day 15): 1.07 | aPTT ratio (INR) (blood coagulation; day 15): 1.03 | PT ratio (INR) (blood coagulation; day 22): 1.03 | aPTT ratio (INR) (blood coagulation; day 22): 1.11 | PT ratio (INR) (blood coagulation; day 29): 1.06 | aPTT ratio (INR) (blood coagulation; day 29): 1.13 | PT ratio (INR) (blood coagulation; day 36): 1.06 | aPTT ratio (INR) (blood coagulation; day 36): 1.19 | PT ratio (INR) (blood coagulation; day 43): 1.04 | aPTT ratio (INR) (blood coagulation; day 43): 1.07 | PT ratio (INR) (blood coagulation; day 50): 1.01 | aPTT ratio (INR) (blood coagulation; day 50): 1.26 | PT ratio (INR) (blood coagulation; day 57): 1.08 | aPTT ratio (INR) (blood coagulation; day 57): 1.19 | PT ratio (INR) (blood coagulation; day 64): 1.10 | aPTT ratio (INR) (blood coagulation; day 64): 1.12 | PT ratio (INR) (blood coagulation; day 71): 1.07 | aPTT ratio (INR) (blood coagulation; day 71): 1.18 | PT ratio (INR) (blood coagulation; day 78): 1.08 | aPTT ratio (INR) (blood coagulation; day 78): 1.18 | PT ratio (INR) (blood coagulation; day 85): 1.13 | aPTT ratio (INR) (blood coagulation; day 85): 1.25 | PT ratio (INR) (blood coagulation; day −5): 1.00 | aPTT ratio (INR) (blood coagulation; day −5): 1.00 | PT ratio (INR) (blood coagulation; day −14): 1.00 | aPTT ratio (INR) (blood coagulation; day −14): 1.00 | BUN [1]: 24 mg/dL | body weight [2]: 12 g | Kidney weight [2]: 1.6% | Liver weight [2]: 5% | Spleen weight [2]: 0.3%

ISIS 445522: 5-8-5 or 6-8-6 MOE microwalk gapmer (Table 44) (antisense eG*e[5mC]*eA*e[5mC]*eA*dG*dT*dT*dT*d[5mC]*dT*dG*dG*e[5mC]*eA*eG*eG*e[5mC])
BUN [3]: 28 mg/dL

ISIS 445531: 5-8-5 or 6-8-6 MOE microwalk gapmer (Table 44) (antisense eG*eG*e[5mC]*eA*eT*dT*dG*dG*dT*dG*d[5mC]*dA*d[5mC]*eA*eG*eT*eT*eT)
BUN [3]: 27 mg/dL
